# According to patent publication US9132084B2, “Methods for administration and formulations for the treatment of regional adipose tissue” (NEOTHETICS, INC., priority 2009, dated 2015):
# Assay: Plasma pharmacokinetics following a single intravenous and subcutaneous injection of a combination of formoterol and budesonide
# Details: for AUC(0-inf): AUCinf; for bioavailability: F (bioavailability); for concentration at 0.0333 hr: female 2-0623, 0.0333 hr; for concentration at 0.0833 hr: female 2-0623, 0.0833 hr; for concentration at 0.167 hr: female 2-0623, 0.167 hr; for concentration at 0.333 hr: female 2-0623, 0.333 hr; for concentration at 0.5 hr: female 2-0623, 0.500 hr; for concentration at 0.75 hr: female 2-0623, 0.750 hr; for concentration at 1 hr: female 2-0623, 1.00 hr; for concentration at 2 hr: female 2-0623, 2.00 hr; for concentration at 4 hr: female 2-0623, 4.00 hr; for concentration at 8 hr: female 2-0623, 8.00 hr
# Procedure: Formoterol fumarate dehydrate and budesonide were formulated in 2% PEG-400 in saline. 1 male and 1 female non-naive Gottingen minipigs (8 to 12 kg upon receipt per protocol) were utilized. The animals were housed individually.
# Each minipig received a single IV injection of the combined formoterol and budesonide formulation followed by testing of the SC doses. Each dose was separated by at least a 3-day washout period. The IV dose was administered by slow bolus (1 minute; 0.017 hr) into the marginal ear vein, whereas the first SC dose was administered as a bolus injection along the back (neck-region) where there was a longitudinal fat depot. The second SC dose was distributed in 5 separate proximal SC injections separated by approximately 2 cm. Blood samples (approximately 4 mL) were collected via the branchiocephalic plexus at pre-dose and at 2, 5, 10, 20, 30 and 45 minutes, and at 1, 2, 4, 8 and 24 hr post-dose. Blood samples were placed in tubes containing K2-EDTA as the anticoagulant. Samples were processed to plasma by centrifugation and stored frozen at approximately −70° C. (+/−15° C.) until shipment for analysis.
# Plasma samples were analyzed for formoterol and budesonide using a qualified liquid chromatography/mass spectrometry/mass mass spectrometry (LC/MS/MS) method. The lower limit of quantitation (LLOQ) was 1.00 pg/mL for formoterol and 25.0 pg/mL for budesonide.
# Non-compartmental pharmacokinetic parameters were calculated using WinNonlin 5.2 software, NCA model 202, IV infusion input for the IV data and NCA model 200, extravascular input for the SC data. Individual plasma concentrations for each animal were used in the calculation of pharmacokinetic parameters. Nominal collection times and doses were used in the calculations. The area under the plasma concentration-time curve (AUC) was calculated using linear trapezoidal approximation (linear/log interpolation). Concentration values below the assay limit of quantitation were set to zero for calculations. The maximum plasma concentration (Cmax) and the time of its occurrence (Tmax) were verified by inspection. The half-life (t1/2) values were calculated using the last 3 plasma concentrations with nonzero values, if data permitted.
# [1] = female, Gottingen, minipig, in vivo, formoterol 0.4 μg/kg SC1 single site, combination, female 2-0623
# [2] = female, Gottingen, minipig, in vivo, formoterol 0.4 μg/kg SC5 (5 sites), combination, female 2-0623
# [3] = female, Gottingen, minipig, in vivo, Plasma concentration of formoterol, SC1 0.4 μg/kg, combination
# [4] = female, Gottingen, minipig, in vivo, Plasma concentration of formoterol, SC5 0.4 μg/kg, combination
# [5] = female, Gottingen, minipig, in vivo, iv, 0.4 ug/kg
# [6] = female, Gottingen, minipig, in vivo, iv, 0.4 ug/kg, formoterol 0.4 μg/kg IV in combination with budesonide, female 2-0623
# [7] = female, Gottingen, minipig, in vivo, iv, Plasma concentration of formoterol, IV 0.4 μg/kg, combination
smiles,measurement,setting,value
"COc1ccc(CC(C)NCC(O)c2ccc(O)c(NC=O)c2)cc1 (centres unmarked) [Formoterol, formoterol]",Plasma concentration of formoterol,"IV 0.4 μg/kg, combination, female 2-0623, 24.0 hr",<LLOQ (LLOQ = 1.00 pg/mL for formoterol)
same,Plasma concentration of formoterol,"IV 0.4 μg/kg, combination, male 1-0771, 0 hr",<LLOQ (LLOQ = 1.00 pg/mL for formoterol)
same,Plasma concentration of formoterol,"IV 0.4 μg/kg, combination, male 1-0771, 24.0 hr",<LLOQ (LLOQ = 1.00 pg/mL for formoterol)
same,Plasma concentration of formoterol,"SC1 0.4 μg/kg, combination, female 2-0623, 0 hr",<LLOQ (LLOQ = 1.00 pg/mL for formoterol)
same,Plasma concentration of formoterol,"SC1 0.4 μg/kg, combination, female 2-0623, 24.0 hr",<LLOQ (LLOQ = 1.00 pg/mL for formoterol)
same,Plasma concentration of formoterol,"SC5 0.4 μg/kg, combination, female 2-0623, 0 hr",<LLOQ (LLOQ = 1.00 pg/mL for formoterol)
same,Plasma concentration of formoterol,"SC5 0.4 μg/kg, combination, male 1-0771, 0 hr",<LLOQ (LLOQ = 1.00 pg/mL for formoterol)
same,AUC(0-inf),[1],0.378 ng·h/mL
same,AUC(0-inf),[2],0.577 ng·h/mL
same,Cmax,[1],0.284 ng/mL
same,Cmax,[2],0.256 ng/mL
same,bioavailability,[1],115%
same,bioavailability,[2],176%
same,concentration at 0.0333 hr,[3],0.169 ng/mL
same,concentration at 0.0833 hr,[3],0.284 ng/mL
same,concentration at 0.167 hr,[3],0.237 ng/mL
same,concentration at 0.333 hr,[3],0.156 ng/mL
same,concentration at 0.5 hr,[3],0.127 ng/mL
same,concentration at 0.75 hr,[3],0.0789 ng/mL
same,concentration at 1 hr,[3],0.0678 ng/mL
same,concentration at 2 hr,[3],0.0512 ng/mL
same,concentration at 4 hr,[3],0.0285 ng/mL
same,concentration at 8 hr,[3],0.00858 ng/mL
same,concentration at 0.0333 hr,[4],0.0946 ng/mL
same,concentration at 0.0833 hr,[4],0.256 ng/mL
same,concentration at 0.167 hr,[4],0.178 ng/mL
same,concentration at 0.333 hr,[4],0.131 ng/mL
same,concentration at 0.5 hr,[4],0.1 ng/mL
same,concentration at 0.75 hr,[4],0.0826 ng/mL
same,concentration at 1 hr,[4],0.0628 ng/mL
same,concentration at 2 hr,[4],0.0444 ng/mL
same,concentration at 4 hr,[4],0.026 ng/mL
same,concentration at 8 hr,[4],0.0103 ng/mL
same,concentration at 24 hr,"female, Gottingen, minipig, in vivo, Plasma concentration of formoterol, SC5 0.4 μg/kg, combination, female 2-0623, 24.0 hr",0.00695 ng/mL
same,Tmax,[1],5 min
same,Tmax,[2],5 min
same,Vd,[5],3.17 L/kg
same,clearance,[5],20.3 mL/min/kg
same,AUC(0-inf),[6],0.328 ng·h/mL
same,Cmax,[6],0.9 ng/mL
same,Tmax,[6],2 min
same,half-life,"female, Gottingen, minipig, in vivo, iv, 0.4 ug/kg, t1/2, formoterol 0.4 μg/kg IV in combination with budesonide, female 2-0623",2.86 h
same,concentration at 0 hr,"female, Gottingen, minipig, in vivo, iv, Plasma concentration of formoterol, IV 0.4 μg/kg, combination, female 2-0623, 0 hr",0.00353 ng/mL
same,concentration at 0.0333 hr,[7],0.9 ng/mL
same,concentration at 0.0833 hr,[7],0.204 ng/mL
same,concentration at 0.167 hr,[7],0.11 ng/mL
same,concentration at 0.333 hr,[7],0.0735 ng/mL
same,concentration at 0.5 hr,[7],0.0984 ng/mL
same,concentration at 0.75 hr,[7],0.0614 ng/mL
same,concentration at 1 hr,[7],0.0454 ng/mL
same,concentration at 2 hr,[7],0.0313 ng/mL
same,concentration at 4 hr,[7],0.0184 ng/mL
same,concentration at 8 hr,[7],0.00726 ng/mL
same,half-life,"female, Gottingen, minipig, in vivo, t1/2, formoterol 0.4 μg/kg SC1 single site, combination, female 2-0623",2.33 h
same,half-life,"female, Gottingen, minipig, in vivo, t1/2, formoterol 0.4 μg/kg SC5 (5 sites), combination, female 2-0623",12.8 h
same,tlast,"formoterol 0.4 μg/kg IV in combination with budesonide, female 2-0623",8.00 h
